Results as given in article PMC10364322, “Evaluation of chronic drug-induced electrophysiological and cytotoxic effects using human-induced pluripotent stem cell-derived cardiomyocytes (hiPSC-CMs)” (Frontiers in Pharmacology, 2023).
Where two headings read alike, the source gives them in different places.

System: hiPSC-CMs (iCell-Cardiomyocytes^2)
In short: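 Monolayers of hiPSC-CMs on fibronectin-coated MEA plates, 50 K/well, kept at 37°C, 5% CO2; compounds added in 0.1% final DMSO after 5-min baseline. Field potential and impedance parameters expressed as mean ± SD percent change from baseline; arrhythmic events noted; cytotoxicity fluorescence normalized to DMSO, Kruskal-Wallis.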

CC(C)(Sc1cc(C(C)(C)C)c(O)c(C(C)(C)C)c1)Sc1cc(C(C)(C)C)c(O)c(C(C)(C)C)c1 [Probucol]
BR (beating rate), % change from baseline (0.3 µM, 2h): 0±1%
Beating below threshold, number of observations/total well numbers (0.3 µM, 2h): 0/5
Cessation of beating, number of observations/total well numbers (0.3 µM, 2h): 0/5
EAD, number of observations/total well numbers (0.3 µM, 2h): 0/5
FPD (field-potential duration), % change from baseline (0.3 µM, 2h): 2.5±1.9%
FPDc (field-potential duration corrected by beat-rate), % change from baseline (0.3 µM, 2h): 2.6±1.7%
Flat T-wave-like, number of observations/total well numbers (0.3 µM, 2h): 0/5
BR (beating rate), % change from baseline (0.3 µM, 24h): 4±2%
Beating below threshold, number of observations/total well numbers (0.3 µM, 24h): 0/5
Cessation of beating, number of observations/total well numbers (0.3 µM, 24h): 0/5
EAD, number of observations/total well numbers (0.3 µM, 24h): 0/5
FPD (field-potential duration), % change from baseline (0.3 µM, 24h): 2.5±6.9%
FPDc (field-potential duration corrected by beat-rate), % change from baseline (0.3 µM, 24h): 3.8±6.8%
Flat T-wave-like, number of observations/total well numbers (0.3 µM, 24h): 1/5
BR (beating rate), % change from baseline (0.3 µM, 48h): -1±1%
Beating below threshold, number of observations/total well numbers (0.3 µM, 48h): 0/5
Cessation of beating, number of observations/total well numbers (0.3 µM, 48h): 0/5
EAD, number of observations/total well numbers (0.3 µM, 48h): 0/5
FPD (field-potential duration), % change from baseline (0.3 µM, 48h): 5.1±4.5%
FPDc (field-potential duration corrected by beat-rate), % change from baseline (0.3 µM, 48h): 4.5±4.4%
Flat T-wave-like, number of observations/total well numbers (0.3 µM, 48h): 0/5
BR (beating rate), % change from baseline (0.3 µM, 72h): -6±3%
Beating below threshold, number of observations/total well numbers (0.3 µM, 72h): 0/5
Cessation of beating, number of observations/total well numbers (0.3 µM, 72h): 0/5
EAD, number of observations/total well numbers (0.3 µM, 72h): 0/5
FPD (field-potential duration), % change from baseline (0.3 µM, 72h): 1.8±4.6%
FPDc (field-potential duration corrected by beat-rate), % change from baseline (0.3 µM, 72h): -0.2±4.7%
Flat T-wave-like, number of observations/total well numbers (0.3 µM, 72h): 0/5
BR (beating rate), % change from baseline (0.3 µM, 96h): 0±7%
Beating below threshold, number of observations/total well numbers (0.3 µM, 96h): 0/5
Cessation of beating, number of observations/total well numbers (0.3 µM, 96h): 0/5
EAD, number of observations/total well numbers (0.3 µM, 96h): 0/5
FPD (field-potential duration), % change from baseline (0.3 µM, 96h): 2.4±5.7%
FPDc (field-potential duration corrected by beat-rate), % change from baseline (0.3 µM, 96h): 2.7±6.2%
Flat T-wave-like, number of observations/total well numbers (0.3 µM, 96h): 0/5
BR (beating rate), % change from baseline (1 µM, 2h): 0±1%
Beating below threshold, number of observations/total well numbers (1 µM, 2h): 0/4
Cessation of beating, number of observations/total well numbers (1 µM, 2h): 0/4
EAD, number of observations/total well numbers (1 µM, 2h): 0/4
FPD (field-potential duration), % change from baseline (1 µM, 2h): 0.8±4.5%
FPDc (field-potential duration corrected by beat-rate), % change from baseline (1 µM, 2h): 1.1±4.5%
Flat T-wave-like, number of observations/total well numbers (1 µM, 2h): 0/4
BR (beating rate), % change from baseline (1 µM, 24h): 6±1%
Beating below threshold, number of observations/total well numbers (1 µM, 24h): 0/4
Cessation of beating, number of observations/total well numbers (1 µM, 24h): 0/4
EAD, number of observations/total well numbers (1 µM, 24h): 0/4
FPD (field-potential duration), % change from baseline (1 µM, 24h): 13±11.4%
FPDc (field-potential duration corrected by beat-rate), % change from baseline (1 µM, 24h): 15.1±11.7%
Flat T-wave-like, number of observations/total well numbers (1 µM, 24h): 0/4
BR (beating rate), % change from baseline (1 µM, 48h): 0±2%
Beating below threshold, number of observations/total well numbers (1 µM, 48h): 0/4
Cessation of beating, number of observations/total well numbers (1 µM, 48h): 0/4
EAD, number of observations/total well numbers (1 µM, 48h): 0/4
FPD (field-potential duration), % change from baseline (1 µM, 48h): 12.6±11.7%
FPDc (field-potential duration corrected by beat-rate), % change from baseline (1 µM, 48h): 12.5±11.6%
Flat T-wave-like, number of observations/total well numbers (1 µM, 48h): 0/4
BR (beating rate), % change from baseline (1 µM, 72h): 0±5%
Beating below threshold, number of observations/total well numbers (1 µM, 72h): 0/4
Cessation of beating, number of observations/total well numbers (1 µM, 72h): 0/4
EAD, number of observations/total well numbers (1 µM, 72h): 0/4
FPD (field-potential duration), % change from baseline (1 µM, 72h): 8.9±8.5%
FPDc (field-potential duration corrected by beat-rate), % change from baseline (1 µM, 72h): 8.8±8.8%
Flat T-wave-like, number of observations/total well numbers (1 µM, 72h): 0/4
BR (beating rate), % change from baseline (1 µM, 96h): 2±3%
Beating below threshold, number of observations/total well numbers (1 µM, 96h): 0/4
Cessation of beating, number of observations/total well numbers (1 µM, 96h): 0/4
EAD, number of observations/total well numbers (1 µM, 96h): 0/4
FPD (field-potential duration), % change from baseline (1 µM, 96h): 9.2±9.9%
FPDc (field-potential duration corrected by beat-rate), % change from baseline (1 µM, 96h): 10.3±10.9%
Flat T-wave-like, number of observations/total well numbers (1 µM, 96h): 0/4
BR (beating rate), % change from baseline (3 µM, 72h): 6±4%
Beating below threshold, number of observations/total well numbers (3 µM, 72h): 0/5
Cessation of beating, number of observations/total well numbers (3 µM, 72h): 0/5
EAD, number of observations/total well numbers (3 µM, 72h): 0/5
FPD (field-potential duration), % change from baseline (3 µM, 72h): 1.7±4.6%
FPDc (field-potential duration corrected by beat-rate), % change from baseline (3 µM, 72h): 3.6±3.3%
Flat T-wave-like, number of observations/total well numbers (3 µM, 72h): 0/5
BR (beating rate), % change from baseline (3 µM, 96h): 14±5 %
Beating below threshold, number of observations/total well numbers (3 µM, 96h): 0/5
Cessation of beating, number of observations/total well numbers (3 µM, 96h): 0/5
EAD, number of observations/total well numbers (3 µM, 96h): 0/5
FPD (field-potential duration), % change from baseline (3 µM, 96h): -4.1±6.5%
FPDc (field-potential duration corrected by beat-rate), % change from baseline (3 µM, 96h): 0.1±7%
Flat T-wave-like, number of observations/total well numbers (3 µM, 96h): 0/5
BR (beating rate), % change from baseline (3 µM, 2h): 2±4%
Beating below threshold, number of observations/total well numbers (3 µM, 2h): 0/5
Cessation of beating, number of observations/total well numbers (3 µM, 2h): 0/5
EAD, number of observations/total well numbers (3 µM, 2h): 0/5
FPD (field-potential duration), % change from baseline (3 µM, 2h): 3.7±3.5%
FPDc (field-potential duration corrected by beat-rate), % change from baseline (3 µM, 2h): 4.4±2.3%
Flat T-wave-like, number of observations/total well numbers (3 µM, 2h): 0/5
BR (beating rate), % change from baseline (3 µM, 24h): 7±0%
Beating below threshold, number of observations/total well numbers (3 µM, 24h): 0/5
Cessation of beating, number of observations/total well numbers (3 µM, 24h): 0/5
EAD, number of observations/total well numbers (3 µM, 24h): 0/5
FPD (field-potential duration), % change from baseline (3 µM, 24h): 8.9±1.5%
FPDc (field-potential duration corrected by beat-rate), % change from baseline (3 µM, 24h): 11.3±1.4%
Flat T-wave-like, number of observations/total well numbers (3 µM, 24h): 0/5
BR (beating rate), % change from baseline (3 µM, 48h): 7±2%
Beating below threshold, number of observations/total well numbers (3 µM, 48h): 0/5
Cessation of beating, number of observations/total well numbers (3 µM, 48h): 0/5
EAD, number of observations/total well numbers (3 µM, 48h): 0/5
FPD (field-potential duration), % change from baseline (3 µM, 48h): 2.8±2.5%
FPDc (field-potential duration corrected by beat-rate), % change from baseline (3 µM, 48h): 4.9±2.3%
Flat T-wave-like, number of observations/total well numbers (3 µM, 48h): 0/5
BR (beating rate), % change from baseline (10 µM, 2h): 1±2%
Beating below threshold, number of observations/total well numbers (10 µM, 2h): 0/5
Cessation of beating, number of observations/total well numbers (10 µM, 2h): 0/5
EAD, number of observations/total well numbers (10 µM, 2h): 0/5
FPD (field-potential duration), % change from baseline (10 µM, 2h): 5.5±2.1%
FPDc (field-potential duration corrected by beat-rate), % change from baseline (10 µM, 2h): 6±2.3%
Flat T-wave-like, number of observations/total well numbers (10 µM, 2h): 0/5
BR (beating rate), % change from baseline (10 µM, 24h): 10±3%
Beating below threshold, number of observations/total well numbers (10 µM, 24h): 0/5
Cessation of beating, number of observations/total well numbers (10 µM, 24h): 0/5
EAD, number of observations/total well numbers (10 µM, 24h): 0/5
FPD (field-potential duration), % change from baseline (10 µM, 24h): 11.3±10%
FPDc (field-potential duration corrected by beat-rate), % change from baseline (10 µM, 24h): 15.1±11%
Flat T-wave-like, number of observations/total well numbers (10 µM, 24h): 0/5
BR (beating rate), % change from baseline (10 µM, 48h): 17±3%
Beating below threshold, number of observations/total well numbers (10 µM, 48h): 0/5
Cessation of beating, number of observations/total well numbers (10 µM, 48h): 0/5
EAD, number of observations/total well numbers (10 µM, 48h): 0/5
FPD (field-potential duration), % change from baseline (10 µM, 48h): -0.8±13.7%
FPDc (field-potential duration corrected by beat-rate), % change from baseline (10 µM, 48h): 4.7±14.8%
Flat T-wave-like, number of observations/total well numbers (10 µM, 48h): 1/5
BR (beating rate), % change from baseline (10 µM, 72h): 26±7 %
Beating below threshold, number of observations/total well numbers (10 µM, 72h): 0/5
Cessation of beating, number of observations/total well numbers (10 µM, 72h): 0/5
EAD, number of observations/total well numbers (10 µM, 72h): 0/5
FPD (field-potential duration), % change from baseline (10 µM, 72h): -10.2±17%
FPDc (field-potential duration corrected by beat-rate), % change from baseline (10 µM, 72h): -2.8±19.3%
Flat T-wave-like, number of observations/total well numbers (10 µM, 72h): 1/5
BR (beating rate), % change from baseline (10 µM, 96h): 48±6 %
Beating below threshold, number of observations/total well numbers (10 µM, 96h): 0/5
Cessation of beating, number of observations/total well numbers (10 µM, 96h): 0/5
EAD, number of observations/total well numbers (10 µM, 96h): 0/5
FPD (field-potential duration), % change from baseline (10 µM, 96h): -14.5±9.4%
FPDc (field-potential duration corrected by beat-rate), % change from baseline (10 µM, 96h): -2.5±12.4%
Flat T-wave-like, number of observations/total well numbers (10 µM, 96h): 2/5
prolongation of FPD / FPDc (all concentrations tested): did not induce a statistically significant prolongation of the FPD
